One data set relates to EL4 cells. As to the kind of experiment: CellTiter-Blue assay, EL4. It counts as cell-based. The note with it: EL4 cell line, 72 hours. As to the method: (§1) Assay (d): CellTiter-Blue® Assay
Cell suspensions were prepared by adjusting the cell density to the appropriate concentration (as stated in the Table 10 below) and 50 μL of the cell suspension was transferred to wells B-G in columns 2-11 of a 96-well plate.
For each the BL-41, Ramos, Raji, A20 cell lines and EL4, twenty-four hours later, 50 μL of the growth media for the respective cell line (positive control), a mix of Puromycin and Staurosporine (negative controls, final concentration 10 μg/mL and 1 μM respectively) or different concentrations of each Example compound being tested (dilution factor=3, starting at μM, final concentration in the plate starting from 10 μM) were prepared and added to a well of the 96-well plate. The plate was incubated at 37° C. with 5% CO2 level.
72 hours later, 20 μl/well CellTiter-Blue® (G8081, Promega) were added to the plates according to the manufacturer's protocol, the plate was incubated at 37° C. for 2 or 3-4 h (A20, Ramos and Raji: 2 h; BL-41 and EL-4: 3-4 h), followed by measuring the absorbance per well at 570 nm using an EnVision plate reader. The negative control values were subtracted from every value. The metabolic activity was calculated as a percentage relative to the positive control. The EC50 values were calculated using GraphPad Prism.

Data set [1] deals with Plasmodium falciparum 3D7. As to the kind of experiment: SYBR Green assay, Plasmodium falciparum strain 3D7. The settings on record: P. falciparum strain 3D7, 96 h incubation, read-out: Pf EC50 strain 3D7. It counts as cell-based.
A further data set has as its system A20 cells. As to the kind of experiment: CellTiter-Blue assay, A20. It counts as cell-based, murine. The settings on record: Mus musculus, A20 cell line, 72 hours. The protocol:
as §1
(§2) BL-41, Ramos, Raji and A20 cells (obtained from Cell Services at the Crick Institute; cell type of BL-41, Ramos, Raji: Burkitt's Lymphoma; cell type of A20: murine B cell lymphoma cell line) were grown in RPMI-1640 media in 5% CO2 (supplemented with 10% FBS). The cells were seeded in 96-well plates, 24 h prior to treatment. Cell suspensions were prepared by adjusting the cell density to the appropriate concentration (as stated in the Table 9 below) and 50 μL of the cell suspension was transferred to wells B-G in columns 2-11 of a 96-well plate. […]
(§3) 72 hours later, 20 μl/well CellTiter-Blue® (G8081, Promega) were added to the plates according to the manufacturer's protocol, the plate was incubated at 37° C. for 2 or 3-4 h (A20, Ramos and Raji: 2 h; BL-41 and EL-4: 3-4 h), followed by measuring the absorbance per well at 570 nm using an EnVision plate reader. […] The metabolic activity was calculated as a percentage relative to the positive control. The EC50 values were calculated using GraphPad Prism.
(The colour change of resazurin is a common sign of viable cells or microbes.)

The next data set concerns Ramos cells. The data set is described as follows: CellTiter-Blue assay, Ramos. It counts as cell-based. The note with it: Homo sapiens, Ramos cell line, 72 hours. The protocol: as §1, §2, §3
A further data set can be described thus: in vitro. The settings on record: male, Sprague-Dawley, rat, pooled cryopreserved rat hepatocytes, pH 7.4.
A further data set concerns Raji cells. As to the kind of experiment: CellTiter-Blue assay, Raji. It counts as cell-based. The settings on record: Homo sapiens, Raji cell line, 72 hours. The protocol: as §1, §2, §3
Data set [2] addresses Plasmodium vivax (Pv) NMT (Plasmodium vivax (strain Salvador I), UniProt A5K1A2). The data set is described as follows: biochemical.
The target of a further data set is Human NMT1 (HsNMT1) (Homo sapiens, UniProt P30419). As to the kind of experiment: biochemical.
Sequence of Human NMT1 (HsNMT1) (P30419 whole entry, looked up): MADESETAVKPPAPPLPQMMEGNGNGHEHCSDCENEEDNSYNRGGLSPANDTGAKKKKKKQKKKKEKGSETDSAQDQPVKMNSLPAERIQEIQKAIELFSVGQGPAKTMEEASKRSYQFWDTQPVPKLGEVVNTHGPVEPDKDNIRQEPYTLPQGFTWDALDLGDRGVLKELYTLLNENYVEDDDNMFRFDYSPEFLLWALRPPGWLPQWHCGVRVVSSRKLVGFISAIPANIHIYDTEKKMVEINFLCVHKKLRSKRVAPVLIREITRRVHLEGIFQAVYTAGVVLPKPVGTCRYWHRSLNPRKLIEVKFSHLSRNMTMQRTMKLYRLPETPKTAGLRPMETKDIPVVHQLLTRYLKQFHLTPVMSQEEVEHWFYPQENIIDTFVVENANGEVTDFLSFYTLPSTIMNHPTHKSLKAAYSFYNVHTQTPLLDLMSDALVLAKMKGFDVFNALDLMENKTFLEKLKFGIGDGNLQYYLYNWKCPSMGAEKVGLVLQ
Data set [3] can be described thus: Rat clearance and bioavailability (iv and oral dosing). It counts as in vivo. The settings on record: male, Sprague-Dawley, plasma, administered as a single compound; for half-life: read-out: Rat iv t1/2 (converted).
The subject of another data set is SU-DHL-10 cells. The data set is described as follows: Cell cytotoxicity in SU-DHL-10 cell line (CellTiter-Glo). It counts as cell-based. The settings on record: Homo sapiens, SU-DHL10; CellTiter-Glo, 48 h; read-out: SU-DHL-10 EC50.
Data set [4] concerns BL-41 cells. As to the kind of experiment: CellTiter-Blue assay, BL-41. It counts as cell-based. The settings on record: Homo sapiens, BL41 cell line, 72 hours. As to the method:
as §1, §2, §3

Data set [5] has as its system BL-41 cells. The data set is described as follows: Metabolic activity assay (MTS assay) in BL-41 cell line. It counts as cell-based. The note with it: Homo sapiens, 72 h. For orientation: Formazan colour is commonly taken as a measure of viable cells.
For another data set, the system named is DOHH-2 tumor cells. As to the kind of experiment: Mouse xenograft, subcutaneous DOHH-2 Lymphoma Model. It counts as in vivo. The settings on record: compared to vehicle. As to the method:
Assay (i): Mouse Xenograft Protocol
The in vivo efficacy was assess in a subcutaneous xenograft DOHH-2 Lymphoma Model using Female 6-8 week old CB17/SCID Mice. […] The test compound administration started once the mean tumor size reached approximately 100-150 mm3. Compounds were administered either IP (vehicle 58% Na2HPO4 buffer (10 mM) (pH4.5)+40% PEG400+2% DMSO) or orally (vehicle Na2HPO4 buffer (10 mM) (pH 4.5)+0.2% tween 80). Tumor volumes were measured in two dimensions using a caliper, and the volume expressed in mm3 using the formula: V=(L×W×W)/2, where V is tumor volume, L is tumor length (the longest tumor dimension) and W is tumor width (the longest tumor dimension perpendicular to L).
Mice were dosed with Example 2 orally (50 mg/kg) once a day for 9 consecutive days (FIG. 5a), or Example 2 was dosed intraperitonally (25 mg/kg) in a cycle consisting of administration twice a day for three days followed by a four day no-dosing period (FIG. 5b). The cycle was repeated three times.
Mice were dosed with Example 129 intraperitonally (25 mg/kg) in a cycle consisting of administration twice a day for three days followed by a four day no-dosing period (Figure Sc). The cycle was repeated three times.
The protocol and any amendment(s) or procedures involving the care and use of animals in this study were reviewed and approved by the Institutional Animal Care and Use Committee (IACUC) of CrownBio prior to execution. During the study, the care and use of animals was conducted in accordance with the regulations of the Association for Assessment and Accreditation of Laboratory Animal Care (AAALAC).

Data set [6] has as its target Plasmodium falciparum NMT (Plasmodium falciparum (isolate 3D7), UniProt Q8ILW6). The note with it: cited from earlier work.
Data set [7] deals with P. falciparum Pf3D7^0087/N9. The data set is described as follows: Mouse malaria model, NODscidIL2Rγnull mice engrafted with human erythrocytes. The settings on record: for activity compared to untreated control mice: day 7 post-infection.

Like-named read-outs stand apart in the source and are kept apart here.

Sequence of Plasmodium vivax (Pv) NMT (A5K1A2 1-410): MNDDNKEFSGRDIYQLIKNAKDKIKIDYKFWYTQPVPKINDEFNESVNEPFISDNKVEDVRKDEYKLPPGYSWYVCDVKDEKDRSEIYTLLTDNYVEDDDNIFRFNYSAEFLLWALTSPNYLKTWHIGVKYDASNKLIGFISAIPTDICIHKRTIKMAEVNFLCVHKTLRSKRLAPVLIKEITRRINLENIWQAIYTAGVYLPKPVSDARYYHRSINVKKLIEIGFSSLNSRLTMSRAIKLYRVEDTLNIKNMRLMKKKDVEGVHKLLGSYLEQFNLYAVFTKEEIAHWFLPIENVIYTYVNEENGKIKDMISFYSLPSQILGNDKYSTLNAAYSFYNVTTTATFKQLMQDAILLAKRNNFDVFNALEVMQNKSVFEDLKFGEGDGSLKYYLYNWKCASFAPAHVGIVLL

As usually defined, the EC50 is the concentration giving half of the maximal effect. The term IC50 denotes the midpoint of a concentration-inhibition curve. A lower IC50 goes with inhibition by little substance. A word on the bioavailability: it is the share of a dose that reaches the circulation, judged against a reference dose that is usually intravenous. Read a low bioavailability as poor availability. Take `C[C@H]1CN(C)CCN1c1ncc(Cl)c(N2CC(C(=O)NC(C)(C)c3cnc4ccccn34)C2)n1` [Example 2, 1-(5-chloro-2-[(2S)-2,4-dimethylpiperazin-1-yl]pyrimidin-4-yl)-N-(2-{imidazo[1,2-a]pyridin-3-yl}propan-2-yl)azetidine-3-carboxamide]: the concentration giving a half-maximal response (EC50) in the data set with EL4 cells was determined as 139 nM; in data set [1], 2.4 nM; in the data set with A20 cells it was 600 nM; with Ramos cells it was 218 nM; with Raji cells, 556 nM; in the data set on SU-DHL-10 cells it was 51 nM. For the same compound, the EC50 with BL-41 cells [4] worked out at 557 nM; in the data set on BL-41 cells [5] it was 220 nM. The same compound displayed a half-life at 1 µM in “in vitro” of 1.52 h. Besides, the IC50 in data set [2] worked out at 4.1 nM; at Human NMT1 (HsNMT1), 2.7 nM. Further, the half-life in data set [3] (iv 1 mg/kg) was 3.5 h. Also, the bioavailability in [3] (oral 10 mg/kg) turned out to be 28%. For the same compound, the tumour volume result in the data set with DOHH-2 tumor cells (intraperitoneally 25 mg/kg twice a day for three days then four day no-dosing, cycle repeated three times) was “significant reduction in tumour volume”; in the data set on DOHH-2 tumor cells (orally 50 mg/kg once a day for 9 consecutive days), “significant reduction in tumour volume”.
For the compound `Cc1cnc(CNC(=O)C2CN(c3nc(NCCN(C)C)ncc3Cl)C2)cn1` [PF-03531814, 1-(5-chloro-2-{[2-(dimethylamino)ethyl]amino}pyrimidin-4-yl)-N-[(5-methylpyrazin-2-yl)methyl]azetidine-3-carboxamide], the “selective activity for Plasmodium falciparum NMT over both human NMTs” value in data set [6] is listed as “selective activity”.
As to `C[C@@H]1CN(c2ncc(Cl)c(N3CC(C(=O)NC(C)(C)c4cnc5ccccn45)C3)n2)CCN1C` [Example 3, 1-(5-chloro-2-[(3R)-3,4-dimethylpiperazin-1-yl]pyrimidin-4-yl}-N-(2-{imidazo[1,2-a]pyridin-3-yl}propan-2-yl)azetidine-3-carboxamide], the EC50 with EL4 cells was 1240 nM; in data set [1], 11 nM; in the data set on A20 cells, 6880 nM; in the data set on Ramos cells, 2290 nM; with Raji cells it was 1100 nM; in the data set on SU-DHL-10 cells it was 624 nM. Also, the EC50 with BL-41 cells [4] came to 218 nM; with BL-41 cells [5], 560 nM. Besides, the half-life at 1 µM in “in vitro” was found to be 2.05 h. For the same compound, the results for the “activity compared to untreated control mice” value in data set [7] (4×3 mg/kg p.o.), in data set [7] (4×10 mg/kg p.o.) and in [7] (4×30 mg/kg p.o.) were 4%, 37% and > 99.9%, respectively. Moreover, the “mice / smears parasite free” value in [7] (4×30 mg/kg p.o., day 7) was “all mice were parasite-free”. The compound further came in with an IC50 in data set [2] of 3.4 nM. Further, the half-life in data set [3] (iv 2 mg/kg) is 4.3 h. In [3] (oral 20 mg/kg), this compound gave a bioavailability of 24%.

The values above are taken from patent US20240166643A1, “IMIDAZO[1,2-A]PYRIDINE COMPOUNDS AND THEIR USE IN THERAPY” (Imperial College Innovations Limited, priority 2020, published 2024).
